Measurements taken from patent US20210378240A1, “OXETANYLPHENOXYQUINOLINES AND ANALOGUES” (Bayer Aktiengesellschaft, priority 2018, published 2021).

Protocol: In table 1, the logP values were determined in accordance with EEC Directive 79/831 Annex V.A8 by HPLC (High Performance Liquid Chromatography) on a reversed-phase column (C 18), using the method to described below:
temperature: 40° C.; mobile phases: 0.1% aqueous formic acid and acetonitrile; linear gradient from 10% acetonitrile to 95% acetonitrile;
Calibration was carried out using unbranched alkan-2-ones (comprising 3 to 16 carbon atoms) with known logP values (determination of the logP values by the retention times using linear interpolation between two successive alkanones). lambda-max-values were determined using UV-spectra from 200 nm to 400 nm and the peak values of the chromatographic signals.

For `Cc1nc2c(F)c(F)ccc2cc1Cc1ccccc1Br` [3-(2-bromobenzyl)-7,8-difluoro-2-methylquinoline], the chromatographic logP was 4.26. Work on `O=[N+]([O-])c1cccc(F)c1OC1COC1` [3-(2-fluoro-6-nitrophenoxy)oxetane] yielded a chromatographic logP of 2. `Nc1cccc(F)c1OC1COC1` [3-fluoro-2-(oxetan-3-yloxy)-aniline, 3-fluoro-2-(oxetan-3-yloxy)aniline] showed a chromatographic logP of 1.32. For `Cc1nc2c(F)c(F)ccc2cc1Oc1ccccc1C1OCC1(C)C` (centres unmarked) [I.01, 3-[2-(3,3-dimethyloxetan-2-yl)phenoxy]-7,8-difluoro-2-methyl-quinoline], the chromatographic logP was 4.44. `Cc1nc2c(F)c(F)ccc2cc1Oc1ccccc1C1COC1` [I.02, 7,8-difluoro-2-methyl-3-[2-(oxetan-3-yl)phenoxy]quinoline] gave a chromatographic logP of 3.33. In the case of `Cc1nc2c(F)c(F)ccc2cc1Oc1ccccc1N1CC2(COC2)C1` [I.03, 7,8-difluoro-2-methyl-3-[2-(2-oxa-6-azaspiro[3.3]heptan-6-yl)phenoxy]quinoline], the chromatographic logP is reported as 3.48. Work on `Cc1nc2c(F)c(F)ccc2cc1Cc1ccccc1C1(C)COC1` [I.04, 7,8-difluoro-2-methyl-3-[2-(3-methyloxetan-3-yl)benzyl]quinoline] yielded a chromatographic logP of 3.47. With `Cc1nc2c(F)c(F)ccc2cc1Nc1cccc(F)c1CN1CC(F)(F)C1` [I.10, N-{2-[(3,3-difluoroazetidin-1-yl)methyl]-3-fluorophenyl}-7,8-difluoro-2-methylquinolin-3-amine] the chromatographic logP was 4.33. With `Cc1nc2c(F)c(F)ccc2cc1Cc1ccccc1C#CC1COC1` [I.14, 7,8-difluoro-2-methyl-3-[2-(oxetan-3-ylethynyl)benzyl]quinoline] the chromatographic logP was 3.66. For `Cc1nc2c(F)c(F)ccc2cc1Nc1cccc(F)c1OC1COC1` [I.15, 7,8-difluoro-N-[3-fluoro-2-(oxetan-3-yloxy)phenyl]-2-methylquinolin-3-amine], the chromatographic logP was 3.28. Molecule `Cc1nc2c(F)c(F)ccc2cc1Oc1ccccc1C(O)C(C)(C)CO` (centres unmarked) [IIa.01, 1-{2-[(7,8-difluoro-2-methylquinolin-3-yl)oxy]phenyl}-2,2-dimethylpropane-1,3-diol] has a chromatographic logP of 2.96. Work on `Cc1nc2c(F)c(F)ccc2cc1Oc1cccc(I)c1C(O)C(C)(C)CO` (centres unmarked) [IIa.02, 1-{2-[(7,8-difluoro-2-methylquinolin-3-yl)oxy]-6-iodophenyl}-2,2-dimethylpropane-1,3-diol] yielded a chromatographic logP of 3.57. In the case of `O=Cc1ccccc1Nc1cnc2c(F)cccc2c1` [IV.01, 2-[(8-fluoroquinolin-3-yl)amino]benzaldehyde], the chromatographic logP is reported as 2.88. Molecule `O=Cc1c(F)cccc1Oc1cnc2ccccc2c1` [IV.02, 2-fluoro-6-(quinolin-3-yloxy)benzaldehyde] has a chromatographic logP of 2.43. `Cc1nc2ccccc2cc1Oc1cccc(F)c1C=O` [IV.03, 2-fluoro-6-[(2-methylquinolin-3-yl)oxy]benzaldehyde] showed a chromatographic logP of 2.32. In the case of `Cc1nc2c(F)c(F)ccc2cc1Oc1ccccc1C=O` [IV.04, 2-[(7,8-difluoro-2-methylquinolin-3-yl)oxy]benzaldehyde], the chromatographic logP is reported as 3.21. For `Cc1nc2c(F)c(F)ccc2cc1Oc1cccc(F)c1C=O` [IV.05, 2-[(7,8-difluoro-2-methylquinolin-3-yl)oxy]-6-fluorobenzaldehyde], the chromatographic logP was 3.1. For `Fc1cccc(Br)c1CN1CC(F)(F)C1` [IX_C, 1-(2-bromo-6-fluorobenzyl)-3,3-difluoroazetidine], the chromatographic logP was 1.89. In the case of `CC1(c2ccccc2CBr)COC1` [XIII.01, 3-[2-(bromomethyl)phenyl]-3-methyloxetane], the chromatographic logP is reported as 2.73. For `CC1(c2ccccc2CO)COC1` [XIV.01, [2-(3-methyloxetan-3-yl)phenyl]methanol], the chromatographic logP was 1.3.
